One assay concerns the target T1, human TGR5 (Homo sapiens, UniProt Q8TDU6).
T1 construct: expressed in transfected cells; host or cells: HEK293
T1 sequence (Q8TDU6 1-330): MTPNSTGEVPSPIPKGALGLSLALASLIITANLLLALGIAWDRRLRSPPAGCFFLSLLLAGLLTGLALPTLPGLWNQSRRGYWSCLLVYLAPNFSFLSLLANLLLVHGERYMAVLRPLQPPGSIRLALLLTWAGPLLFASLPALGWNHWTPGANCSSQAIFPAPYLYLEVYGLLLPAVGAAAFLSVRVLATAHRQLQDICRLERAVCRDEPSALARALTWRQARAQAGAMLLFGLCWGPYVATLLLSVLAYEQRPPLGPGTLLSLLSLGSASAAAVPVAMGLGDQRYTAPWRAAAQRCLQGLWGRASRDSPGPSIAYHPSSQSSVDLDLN
Kind of assay: Cell-based TGR5 assay (cAMP generation, HTRF). The following applies: HEK293 cells stably transfected with human TGR5; cAMP by HTRF; 30 minutes at 37° C.; read-out: pEC50 Human TGR5 (converted). Summed up: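 First, compounds in 3-fold serial dilution were placed in HBSS with 10 mM HEPES pH 7.4 and 0.5 mM IBMX. Next, human TGR5-expressing HEK293 cells were added and incubated 30 min at 37° C. Finally, cAMP was detected by HTRF and pEC50 derived by logistic fitting.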
(In general: Time-resolved FRET reads energy transfer from a long-lived donor to a nearby acceptor.)

In assay [1] the test system is Western diet (WD)-fed mice. Nature of the assay: Mouse model of NAFLD and mild diabetes, Western diet (WD)-fed mice: glucose, insulin, liver lipids, GLP levels. The format is in vivo, C57BL/6 male mice. How it is done: Seven week old C57BL/6 male mice were housed 5/cage. Two cages of mice were put on normal chow (Harlan Teklad 2018), and the remaining cages of mice were put on WD (Harlan Teklad, TD.88137, […]/0.2% cholesterol) to induce NAFLD. After 10 weeks, mice were weighed and fasted for 4 h. Blood was collected to measure fasting glucose levels, processed to plasma for measurement of insulin, triglycerides and total cholesterol. This process was repeated on Day 29 of treatment. Based on body weight and fasted glucose and insulin levels, mice were divided into 5 treatment groups (n=10/group), Table 20. […] Mice were weighed twice weekly throughout the study. On the last day of the study (Day 30, 8 hours after food removal), mice were euthanized. Blood was collected in tubes with inhibitors to block DPP-4 activity and processed to plasma for measurement of liver enzymes and GLP levels using an Ace Alera clinical analyzer and the Multi-Array Assay System from Meso Scale Discovery, respectively. The entire liver was collected, weighed, and a sample was taken and weighed for measurement of triglycerides and total cholesterol.
Data for each group are presented as mean±SEM. Statistical analyses were performed using one-way ANOVA followed by Holm-Sidak's multiple comparisons test. For GLP levels, <statistical significance compared to vehicle (WD) is marked as *, P<0.05; **, P<0.01, ***, P<0.001, and ****, P<0.0001; of linagliptin (WD) versus I-389 alone (WD) or linaglptin+I-389 (WD) is marked as †, P<0.05; ††, P<0.01, of †††, P<0.001, and ††††, P<0.0001; and of I-389 (WD) versus linagliptin (WD)+I-389 (WD) is marked as ^, P<0.05; ^ ^P<0.01, ^ ^^P, P<0.001, and ^ ^^^, P<0.0001. For the remaining parameters, statistical significance compared to vehicle (WD) is marked as *, P<0.05; **, P<0.01, ***, P<0.001, and ****, P<0.0001.

Another assay has as its system small intestine transit. Kind of assay: Intestinal motility independent of gastric emptying (carmine red dye front). Format: in vivo, C57BL/6 male mice. To be noted: I-389 30 mg/kg PO; dye infused via duodenal catheter 1 h later; 15 min; vs vehicle; FIG. 6. How it is done: Seven-eight week old C57BL/6 male mice were acclimated for four days. Mice were then divided into 2 groups and fasted for 2-1/2 h, followed by a PO dose (10 mL/kg) of vehicle (10% 2-hydroxypropyl-β-cyclodextrin [HPCD] in 10 mM PBS containing 0.1% tween 80; HPCD/tween 80) or I-389 30 mg/kg. One hour later, carmine red (6% in sterile water; 100 μL/mouse) dye was infused via the duodenal catheter and mice were euthanised fifteen min after that. The entire length of the small intestine and the distance from the stomach to the dye front in the small intestine was measured and used to calculate the percentage of the small intestine the dye front had travelled during the 15 min timeframe.

Marks after values point to notes of the source that are not given here. Where only a bound is given, the exact number is not on record here.

With `CN(CCCCNC(=O)N[C@@H](CO)[C@@H](O)[C@H](O)[C@H](O)CO)S(=O)(=O)c1ccc(Cl)c(COC2(c3cnccc3-c3ccccc3OC3CC3)CC2)c1` [Compound I-389, 1-(4-[N-methyl[4-chloro-3-([1-[4-(2-cyclopropoxyphenyl)pyridin-3-yl]cyclopropoxy]methyl)benzene]sulfonamido]butyl)-3-[(2S,3R,4S,5R)-1,3,4,5,6-pentahydroxyhexan-2-yl]urea], on human TGR5, the EC50 is less than 100 nM. Moreover, the “active GLP-1 levels / release” value in assay [1] (WD-fed mice, Day 30 plasma, I-389 30 mg/kg, linagliptin 10 mg/kg, FIG. 14) was “effective at inducing active GLP-1 release”. In addition, in assay [1] (WD-fed mice, Day 30 plasma, I-389 30 mg/kg, linagliptin 10 mg/kg, FIG. 15), the “total GLP-1 levels” value is given as “highly elevated”. Further, the body weight entry in assay [1] (WD-fed mice, data not shown) is listed as “did not significantly affect”. Further, in assay [1] (WD-fed mice, vs vehicle (WD)), the “liver total cholesterol levels (in words)” value is “lowered” and the “liver triglycerides (in words)” value is “lowered”. In addition, in assay [1] (Western diet, liraglutide 0.4 mg/kg BID SQ, I-389 30 mg/kg BID PO, linagliptin 10 mg/kg QD PO, mean±SEM, vehicle WD 2.13 ± 0.14), the Liver weight is listed as 1.77 ± 0.09* g. The 4-h fasted insulin in assay [1] (Western diet, liraglutide 0.4 mg/kg BID SQ, I-389 30 mg/kg BID PO, linagliptin 10 mg/kg QD PO, mean±SEM, vehicle WD 2.3 ± 0.3) is given as 1.6 ± 0.2* ng/mL. Further, the Hepatic cholesterol in assay [1] (Western diet, liraglutide 0.4 mg/kg BID SQ, I-389 30 mg/kg BID PO, linagliptin 10 mg/kg QD PO, mean±SEM, vehicle WD 8.56 ± 0.25) is listed as 7.24 ± 0.41** mg/g. In addition, in assay [1] (Western diet, liraglutide 0.4 mg/kg BID SQ, I-389 30 mg/kg BID PO, linagliptin 10 mg/kg QD PO, mean±SEM, vehicle WD 145.40 ± 14.80), the Hepatic triglycerides is 87.82 ± 13.77*** mg/g. In assay [1] (Western diet, liraglutide 0.4 mg/kg BID SQ, I-389 30 mg/kg BID PO, linagliptin 10 mg/kg QD PO, mean±SEM, vehicle WD 239 ± 13), the 4-h fasted glucose is 178 ± 7** mg/dL. Also, the “percentage the carmine red dye front travelled in the small intestine” value in the assay with small intestine transit is on record as “statistically significant increase”.

Values taken from patent US12084472B2 (Ardelyx, Inc., priority 2015, dated 2024).
